{
  "source": "paper PMC12209991",
  "about": "(Clinical Pharmacology in Drug Development, 2025)",
  "key": {"CYP3A4 [1]": {"system": "CYP3A4"}, "CYP3A4 [2]": {"system": "CYP3A4", "assay": "clinical", "conditions": "human, in vivo, po; for AUC(0-inf): AUCinf; for AUC(0-inf) / AUC(0-t) / Cmax: N=12; for AUC(0-t): AUClast"}, "[3]": {"conditions": "midazolam with RBN-3143 / without RBN-3143 (300 mg BID for 14 days)"}, "[4]": {"conditions": "midazolam with RBN-3143 / without RBN-3143 (300 mg BID for 14 days), listed as midazolam"}, "[5]": {"conditions": "2 mg, GLSM, midazolam 2 mg single oral dose without RBN-3143 (day 1)"}, "[6]": {"conditions": "2 mg, geometric mean (Geo CV%), midazolam 2 mg single oral dose without RBN-3143 (day 1)"}, "[7]": {"conditions": "2 mg, mean (SD), midazolam 2 mg single oral dose without RBN-3143 (day 1)"}, "[8]": {"conditions": "GLSM, midazolam 2 mg single oral dose with RBN-3143 300 mg BID at steady state (day 16)"}, "[9]": {"conditions": "geometric mean (Geo CV%), midazolam 2 mg single oral dose with RBN-3143 300 mg BID at steady state (day 16)"}, "[10]": {"conditions": "mean (SD), midazolam 2 mg single oral dose with RBN-3143 300 mg BID at steady state (day 16)"}},
  "note": "Read-outs that look alike come from different tables or passages of the source.",
  "data": [
    {"smiles": "Cc1ncc2n1-c1ccc(Cl)cc1C(c1ccccc1F)=NC2", "note": "[Midazolam, midazolam]", "values": [
      {"measurement": "subjects with decreased exposure to oral midazolam", "setting": "CYP3A4 [1]; after RBN-3143 300 mg BID to steady-state", "value": "9/12"},
      {"measurement": "increase of midazolam Cmax in 1 subject against the trend", "setting": "CYP3A4 [1]; in the presence of RBN-3143", "value": 3, "unit": "fold"},
      {"measurement": "subjects showing increased midazolam AUCinf", "setting": "CYP3A4 [1]; in the presence of RBN-3143", "value": "3 subjects out of 12"},
      {"measurement": "subjects showing increased midazolam Cmax", "setting": "CYP3A4 [1]; in the presence of RBN-3143", "value": "2 subjects out of 12"},
      {"measurement": "AUCinf GLSM ratio (90% CI)", "setting": "CYP3A4 [1]; [3]", "value": "… … 0.88 (0.76, 1.01)"},
      {"measurement": "AUClast GLSM ratio (90% CI)", "setting": "CYP3A4 [1]; [3]", "value": "… … 0.87 (0.75, 1.01)"},
      {"measurement": "Cmax GLSM ratio (90% CI)", "setting": "CYP3A4 [1]; [3]", "value": "… … 0.92 (0.74, 1.16)"},
      {"measurement": "AUCinf GLSM ratio (90% CI)", "setting": "CYP3A4 [1]; [4]", "value": 0.88},
      {"measurement": "Cmax GLSM ratio (90% CI)", "setting": "CYP3A4 [1]; [4]", "value": 0.92},
      {"measurement": "AUC(0-inf)", "setting": "CYP3A4 [2]; [5]", "value": 20.8, "unit": "ng·h/mL"},
      {"measurement": "AUC(0-inf)", "setting": "CYP3A4 [2]; [6]", "value": 20.8, "unit": "ng·h/mL"},
      {"measurement": "AUC(0-inf)", "setting": "CYP3A4 [2]; [7]", "value": 22.2, "unit": "ng·h/mL"},
      {"measurement": "AUC(0-t)", "setting": "CYP3A4 [2]; [5]", "value": 19.8, "unit": "ng·h/mL"},
      {"measurement": "AUC(0-t)", "setting": "CYP3A4 [2]; [6]", "value": 19.8, "unit": "ng·h/mL"},
      {"measurement": "AUC(0-t)", "setting": "CYP3A4 [2]; [7]", "value": 21.2, "unit": "ng·h/mL"},
      {"measurement": "Cmax", "setting": "CYP3A4 [2]; [5]", "value": 9.88, "unit": "ng/mL"},
      {"measurement": "Cmax", "setting": "CYP3A4 [2]; [6]", "value": 9.87, "unit": "ng/mL"},
      {"measurement": "Cmax", "setting": "CYP3A4 [2]; [7]", "value": 10.3, "unit": "ng/mL"},
      {"measurement": "half-life", "setting": "CYP3A4 [2]; 2 mg, t1/2, geometric mean (Geo CV%), midazolam 2 mg single oral dose without RBN-3143 (day 1)", "value": 3.05, "unit": "h"},
      {"measurement": "half-life", "setting": "CYP3A4 [2]; 2 mg, t1/2, mean (SD), midazolam 2 mg single oral dose without RBN-3143 (day 1)", "value": 3.29, "unit": "h"},
      {"measurement": "AUC(0-inf)", "setting": "CYP3A4 [2]; [8]", "value": 18.3, "unit": "ng·h/mL"},
      {"measurement": "AUC(0-inf)", "setting": "CYP3A4 [2]; [9]", "value": 18.3, "unit": "ng·h/mL"},
      {"measurement": "AUC(0-inf)", "setting": "CYP3A4 [2]; [10]", "value": 19.9, "unit": "ng·h/mL"},
      {"measurement": "AUC(0-t)", "setting": "CYP3A4 [2]; [8]", "value": 17.2, "unit": "ng·h/mL"},
      {"measurement": "AUC(0-t)", "setting": "CYP3A4 [2]; [9]", "value": 17.2, "unit": "ng·h/mL"},
      {"measurement": "AUC(0-t)", "setting": "CYP3A4 [2]; [10]", "value": 18.6, "unit": "ng·h/mL"},
      {"measurement": "Cmax", "setting": "CYP3A4 [2]; [8]", "value": 9.11, "unit": "ng/mL"},
      {"measurement": "Cmax", "setting": "CYP3A4 [2]; [9]", "value": 9.11, "unit": "ng/mL"},
      {"measurement": "Cmax", "setting": "CYP3A4 [2]; [10]", "value": 9.76, "unit": "ng/mL"},
      {"measurement": "half-life", "setting": "CYP3A4 [2]; t1/2, geometric mean (Geo CV%), midazolam 2 mg single oral dose with RBN-3143 300 mg BID at steady state (day 16)", "value": 3.09, "unit": "h"},
      {"measurement": "half-life", "setting": "CYP3A4 [2]; t1/2, mean (SD), midazolam 2 mg single oral dose with RBN-3143 300 mg BID at steady state (day 16)", "value": 3.49, "unit": "h"}
    ]}
  ]
}
